# Experimental data taken from patent US8853258B2, “C-linked hydroxamic acid derivatives useful as antibacterial agents” (Pfizer Inc., priority 2009, dated 2014).
# Like-named read-outs stand apart in the source and are kept apart here.
# How the values were obtained:
# [1] = target: Pseudomonas aeruginosa LpxC enzyme (Pseudomonas aeruginosa (strain ATCC 15692 / DSM 22644 / CIP 104116 / JCM 14847 / LMG 12228 / 1C / PRS 101 / PAO1), UniProt P47205); assay: IC50 Assay, LpxC Enzyme from P. aeruginosa (PA LpxC Enzyme IC50); format: biochemical
# In short: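 Reaction run 1 h then stopped with 1N HCl. Conversion measured by RapidFire high-throughput mass spectrometry. IC50 derived from percent conversion relative to a no-enzyme control.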
# [2] = test system: Acinetobacter baumanii/haemolyticus: Multidrug-resistant clinical isolate (AB-3167); assay: MIC determination (CLSI), AB-3167; format: cell-based; conditions: for MIC: Acinetobacter baumannii
# In short: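 Multidrug-resistant clinical isolate AB-3167 (A. baumannii/haemolyticus) tested for minimum inhibitory concentration following CLSI dilution susceptibility standards M7-A7 and M100-S18.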
# [3] = test system: Escherichia coli EC-1: VOGEL, mouse virulent; assay: MIC determination (CLSI), EC-1; format: cell-based; conditions: for MIC: Escherichia coli
# In short: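 E. coli Vogel, a mouse-virulent strain (EC-1), was tested. MICs were set by dilution susceptibility testing per CLSI standards M7-A7/M100-S18.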
# [4] = test system: Klebsiella pneumoniae: Ciprofloxacin-resistant isolate, ESBL, clinical isolate (KP-3700); assay: MIC determination (CLSI), KP-3700; format: cell-based
# In short: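 MIC measured by broth dilution according to CLSI M7-A7 and M100-S18 standards. Test organism was a ciprofloxacin-resistant, ESBL-expressing clinical isolate.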
# [5] = test system: Pseudomonas aeruginosa UI-18: Wild-type (PA-7); assay: MIC determination (CLSI), PA-7; format: cell-based; conditions: for MIC: Pseudomonas aeruginosa
# In short: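 MIC by dilution method per CLSI M7-A7 and M100-S18 guidelines. Strain: wild-type Pseudomonas aeruginosa UI-18.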
# [6] = P. aeruginosa LpxC enzyme, read-out: PA LpxC enzyeme IC50
# [7] = Acinetobacter baumanii/haemolyticus multidrug-resistant clinical isolate AB-3167
# [8] = Escherichia coli EC-1 VOGEL, mouse virulent
# [9] = Pseudomonas aeruginosa UI-18 wild-type PA-7
# [10] = Acinetobacter baumanii/haemolyticus AB-3167
# [11] = Pseudomonas aeruginosa UI-18 (PA-7)
# [12] = Table 3, read-out: PA LpxC enzyeme IC^50
Structure (SMILES),"IC50 [1, 6] [nM]","AB-3167 MIC [2, 7]","EC-1 MIC [3, 8]",KP-3700 MIC [4],"PA-7 MIC [5, 9]",further results
CC(CCc1ccc(-c2cccnc2)c(F)c1)(C(=O)NO)S(C)(=O)=O (stereo not drawn) [Example 197],7.11,≧64 mg/L,≧64 mg/L,≧64 mg/L,8 µg/mL,–
CC(CCc1ccc(C2=CCCCC2)cc1)(C(=O)NO)S(C)(=O)=O (stereo not drawn) [Example 224],0.441,–,–,16 µg/mL,–,"AB-3167 MIC [2, 10]: 4 µg/mL; EC-1 MIC ([3]; Escherichia coli EC-1): 4 µg/mL; PA-7 MIC [5, 11]: 2 µg/mL"
CC(=O)c1ccc(-c2ccc(CCC(C)(C(=O)NO)S(C)(=O)=O)c(F)c2)cn1 (stereo not drawn) [Example 188],0.348,≧64 mg/L,8 µg/mL,8 µg/mL,2 µg/mL,–
CC(CCc1ccc(COc2ccc(F)cc2)cc1)(C(=O)NO)S(C)(=O)=O (stereo not drawn) [Example 228],3.28,–,–,16 µg/mL,–,"AB-3167 MIC [2, 10]: 16 µg/mL; EC-1 MIC ([3]; Escherichia coli EC-1): 8 µg/mL; PA-7 MIC [5, 11]: 8 µg/mL"
"CC(CCc1ccc(OCc2cc(F)ccc2C(F)(F)F)cc1)(C(=O)NO)S(C)(=O)=O (stereo not drawn) [Example 280, 4-(4-{[5-fluoro-2-(trifluoromethyl)benzyl]oxy}phenyl)-N-hydroxy-2-methyl-2-(methylsulfonyl)butanamide]",–,–,–,32 µg/mL,–,"IC50 [1, 12]: 13.8 nM; MIC ([2]; Table 3, read-out: AB-3167 MIC): 32 µg/mL; MIC ([3]; read-out: EC-1 MIC): 8 µg/mL; MIC ([5]; Table 3, read-out: PA-7 MIC): 32 µg/mL"
C[C@](CCc1ccc(-c2ccc3c(c2)OCCO3)cc1)(C(=O)NO)S(C)(=O)=O [Example 175],14.6,≧64 mg/L,32 µg/mL,≧64 mg/L,≧64 mg/L,–
"CC(CCc1ccc(COc2ccccc2)cc1)(C(=O)NO)S(C)(=O)=O (stereo not drawn) [Example 25, N-Hydroxy-2-methyl-2-(methylsulfonyl)-4-[4-(phenoxymethyl)phenyl]butanamide]",–,–,–,16 µg/mL,–,"IC50 ([1]; Table 1, read-out: PA LpxC enzyeme IC50): 2.38 nM; MIC ([2]; Table 1, MIC, read-out: AB-3167 (MIC)): 16 µg/mL; MIC ([3]; read-out: EC-1: (MIC)): 4 µg/mL; MIC ([5]; Table 1, MIC, read-out: PA-7 (MIC)): 8 µg/mL"
CC(C)(O)CCc1ccc(-c2ccc(CCC(C)(C(=O)NO)S(C)(=O)=O)cc2)cc1 (stereo not drawn) [Example 158],0.644,32 µg/mL,0.5 µg/mL,8 µg/mL,4 µg/mL,–
Cc1cccc(-c2ccc(CCC(C)(C(=O)NO)S(C)(=O)=O)cc2)c1C (stereo not drawn) [Example 78],0.444,≧64 mg/L,2 µg/mL,16 µg/mL,2 µg/mL,–
CC(=O)c1ccc(-c2ccc(CC[C@](C)(C(=O)NO)S(C)(=O)=O)cc2)cc1 [Example 182],0.0674,16 µg/mL,0.5 µg/mL,1 µg/mL,0.5 µg/mL,–
"CC(CCc1ccc(OCc2cccc(F)c2F)cc1)(C(=O)NO)S(C)(=O)=O (stereo not drawn) [Example 247, 4-{4-[(2,3-difluorobenzyl)oxy]phenyl}-N-hydroxy-2-methyl-2-(methylsulfonyl)butanamide]",–,–,–,16 µg/mL,–,"IC50 [1, 12]: 0.325 nM; MIC ([2]; Table 3, read-out: AB-3167 MIC): 16 µg/mL; MIC ([3]; read-out: EC-1 MIC): 2 µg/mL; MIC ([5]; Table 3, read-out: PA-7 MIC): 2 µg/mL"
CC(CCc1ccc(-c2ccc3c(c2)C(=O)NC3)cc1F)(C(=O)NO)S(C)(=O)=O (stereo not drawn) [Example 196],0.631,≧64 mg/L,4 µg/mL,16 µg/mL,4 µg/mL,–
CC(O)C(=O)c1ccc(-c2ccc(CCC(C)(C(=O)NO)S(C)(=O)=O)cc2)cc1 (stereo not drawn) [Example 194],0.195,≧64 mg/L,1 µg/mL,4 µg/mL,1 µg/mL,–
CC(CCc1ccc(-c2ccc(OCCCO)cc2)cc1)(C(=O)NO)S(C)(=O)=O (stereo not drawn) [Example 115],0.388,≧64 mg/L,0.5 µg/mL,2 µg/mL,2 µg/mL,–
CC(=O)c1ccc(-c2ccc(CCC(C)(C(=O)NO)S(C)(=O)=O)cc2)cc1F (stereo not drawn) [Example 184],0.155,32 µg/mL,4 µg/mL,2 µg/mL,0.5 µg/mL,–
